One assay concerns the target T1, human vasopressin V1a receptor subtype (Homo sapiens, UniProt P37288).
T1 construct: host or cells: CHO cells; pZeoSV vector for the Thibonnier line
Put plainly: Vasopressin binding in CHO cell membranes expressing human vasopressin V1a subtype receptors ([3H]Manning ligand radioligand binding). The following applies: @ 100 nM. The text has this:
Vasopressin Binding in Chinese Hamster Ovary Cell Membranes Expressing Human Vasopressin V1a Subtype Receptors
Chinese hamster ovary cells (CHO cells) stably transfected with the human vasopressin V1a subtype receptors were either obtained from BioSignal Inc., 1744 rue Williams, Montreal, Quebec, Canada or obtained from M. Thibonnier, Case Western Reserve University School of Medicine, Cleveland, Ohio.
A. Passaging and Amplification of Cells
CHO cells transfected with the human vasopressin V1a subtype receptors obtained from M. Thibonnier (pZeoSV vector) are allowed to grow to confluency (approx. >90%) in T-150 flasks under sterile conditions, in a cell culture medium of F-12 Nutrient Mixture (HAM) with L-glutamine (Gibco Cat. #11765-054) containing 15 mM HEPES (Gibco Cat. #15630-080), 1% antibiotic/antimycotic (add 5 mL 100×, Gibco Cat. #15240-062 per 500 mL F-12), 250 μg/mL Zeocin (add 1.25 mL of 100 mg/mL Invitrogen R-250-01 per 500 mL F-12) and 10% Fetal Bovine Serum (Qualified, heat inactivated, Gibco Cat. #16140-063). The medium is removed by aspiration and the cells are washed with 10 mL of Hank's Balanced Salt solution (Gibco Cat. #14175-095). The salt solution is removed by aspiration and the cells are trypsinized with 5 mL of trypsin-EDTA (0.05% trypsin, 0.53 mM EDTA-4Na, Gibco Cat. #25300-070) for 1 min. The trypsin is removed by aspiration and the cells dislodged by tapping. Cell Culture medium (e.g. 30 mL for 1:30 split) is immediately added and mixed well to inactivate trypsin. 1 mL of detached cells is added to new culture flasks containing fresh cell culture medium (e.g., into 25 mL per T-150 flask), and mixed gently. The cells are incubated at 37° C. in 5% CO2. The medium is changed at 3 to 4 days interval (or as appropriate). The cells grow to confluency (approx. >75%-95%) within 7-8 days. All steps are done under sterile conditions.
The cells are washed twice gently with Hank's Balanced Salt solution (e.g,. use 10 mL per T-150 flask). The excess is removed and the cells are bathed for 15-30 min. in an enzyme-free Cell Dissociation Buffer (e.g. use 8 mL Hank's Based, Gibco Cat. #13150-016 per T-150 flask) until the cells are loosened. The contents are transferred to centrifuge tubes (50 mL) kept in an ice bath. All subsequent steps are done at 4° C. The tubes are centrifuged at 300×g for 15 min (1380 rpm on SORVAL, Model RT6000D, using the rotor for 50 mL tubes). The supernatant is discarded and the cells suspended in homogenizing buffer(10 mM Tris-HCl containing 0.25 M sucrose and 1 mM EDTA, pH 7.4) ensuring that the volume of the buffer is about ten times the volume of the cell pellet. The cells are pooled into a centrifuge tube (50 mL) and homogenized with Polytron at setting 6 for 10 sec. The homogenate is transferred into a Potter-Elvjehm homogenizer and homogenized with 3 strokes. The homogenate is centrifuged at 1500×g for 10 min at 4° C. (3100 rpm using SORVAL, model RT6000D, using the rotor for 50 mL tubes). The pellet is discarded. The supernatant is centrifuged at 100,000×g for 60 min. at 4° C. (Beckman L8-80M ultracentrifuge; spin at 37,500 rpm with rotor type 70 Ti for 50 mL tubes; 38,000 rpm with type 80Ti for 15 mL tubes; or 35,800 rpm with rotor type 45Ti). The supernantant is discarded and the pellet suspended in 3 to 4 mL of Tris buffer (50 mM TRIS—HCl, pH 7.4). The protein content is estimated by the Bradford or Lowry method. The volume of the membrane suspension is adjusted with the membrane buffer (50 mM Tris-HCl containing 0.1% BSA and 0.1 mM PMSF) to give 3.0 mg/mL (or as appropriate) of protein. The membranes are aliquoted and stored at −70° C.
C. Radioligand Binding Assay […]
T1 sequence (P37288 whole entry): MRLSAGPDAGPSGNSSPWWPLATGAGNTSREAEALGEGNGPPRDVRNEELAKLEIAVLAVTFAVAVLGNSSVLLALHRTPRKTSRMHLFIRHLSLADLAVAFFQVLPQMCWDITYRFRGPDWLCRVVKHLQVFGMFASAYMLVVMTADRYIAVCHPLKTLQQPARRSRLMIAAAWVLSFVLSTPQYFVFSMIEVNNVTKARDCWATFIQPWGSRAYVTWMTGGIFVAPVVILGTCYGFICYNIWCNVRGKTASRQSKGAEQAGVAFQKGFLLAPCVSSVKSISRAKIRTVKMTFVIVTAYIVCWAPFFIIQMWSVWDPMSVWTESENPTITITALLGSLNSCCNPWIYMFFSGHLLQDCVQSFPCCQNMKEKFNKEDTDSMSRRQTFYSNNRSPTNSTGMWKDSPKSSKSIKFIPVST
As for `COc1ccccc1-c1ccc(C(=O)N2Cc3ccc(C(=O)N(C)C[C@H](O)CO)n3Cc3ccccc32)cc1C` (single isomer, unassigned) [Example 15], the inhibition at 0.1 µM was found to be 59%. Turning to `COc1ccccc1-c1ccc(C(=O)N2Cc3ccc(C(=O)N(C)C[C@@H](O)CO)n3Cc3ccccc32)cc1C` (single isomer, unassigned) [Example 16], the inhibition at 0.1 µM was 68%.

`Cc1cc(C(=O)N2Cc3ccc(C(=O)NC(CO)(CO)CO)n3Cc3ccccc32)ccc1-c1ccccc1C(F)(F)F` [Example 3, 10-[(2-Methyl-2′-trifluoromethyl-[1,1′-biphenyl]-4-yl)carbonyl]-10,11-dihydro-5H-pyrrolo[2,1-c][1,4]benzodiazepine-3-carboxylic acid (2-hydroxy-1,1-bis-hydroxymethyl-ethyl)-amide]: the inhibition at 0.1 µM turned out to be 7%. The same measure, in the same setting: in the case of `COCCN1CCN(C(=O)c2ccc3n2Cc2ccccc2N(C(=O)c2ccc(-c4ccccc4C(F)(F)F)c(C)c2)C3)CC1` [Example 7, Methyl 2-{4-[(10-{[2-methyl-2′-trifluoromethyl-[1,1′-biphenyl]-4-yl]carbonyl}-10,11-dihydro-5H-pyrrolo[2,1-c][1,4]benzodiazepin-3-yl)carbonyl]piperazin-1-yl}ethyl ether] it was -2%.

Staying with this assay, now noted: value printed in parentheses.
For `COc1cc(C(=O)N2Cc3ccc(C(=O)N(C)C[C@@H](O)[C@H](O)[C@H](O)[C@@H](O)CO)n3Cc3ccccc32)ccc1-c1ccccc1C(F)(F)F` (stereo in doubt) [Example 23, 10-{[2-Methoxy-2′-trifluoromethyl-[1,1′-biphenyl]-4-yl]carbonyl}-N-methyl-N-[(2R,3S,4R,5S)-2,3,4,5,6-pentahydroxyhexyl]-10,11-dihydro-5H-pyrrolo[2,1-c][1,4]benzodiazepine-3-carboxamide], the IC50 is 1080 nM. For `Cc1cc(C(=O)N2Cc3ccc(C(=O)N(CCO)CCO)n3Cc3ccccc32)ccc1-c1ccccc1C(F)(F)F` [Example 1, 10-[(2-Methyl-2′-trifluoromethyl-[1,1′-biphenyl]-4-yl)carbonyl]-10,11-dihydro-5H-pyrrolo[2,1-c][1,4]benzodiazepine-3-carboxylic acid bis-(2-hydroxy-ethyl)-amide], the IC50 is 1390 nM.

Turning to `Cc1cc(C(=O)N2Cc3ccc(C(=O)N(C)CC(O)CO)n3Cc3ccccc32)ccc1-c1ccccc1C(F)(F)F` (centres unmarked) [Example 2, 10-[(2-Methyl-2′-trifluoromethyl-[1,1′-biphenyl]-4-yl)carbonyl]-10,11-dihydro-5H-pyrrolo[2,1-c][1,4]benzodiazepine-3-carboxylic acid (2,3-dihydroxy-propyl)-methyl-amide], the IC50 was 790 nM. Still for that read-out and setting: next, `Cc1cc(C(=O)N2Cc3ccc(C(=O)N(C)C[C@H](O)[C@@H](O)[C@H](O)[C@H](O)CO)n3Cc3ccccc32)ccc1-c1ccccc1C(F)(F)F` [Example 4, 10-[(2-Methyl-2′-trifluoromethyl-[1,1′-biphenyl]-4-yl)carbonyl]-10,11-dihydro-5H-pyrrolo[2,1-c][1,4]benzodiazepine-3-carboxylic acid methyl-((2S,3R,4R,5R)-2,3,4,5,6-pentahydroxy-hexyl)-amide]: 1430 nM; `Cc1cc(C(=O)N2Cc3ccc(C(=O)N4CCN(C[C@H](O)CO)CC4)n3Cc3ccccc32)ccc1-c1ccccc1C(F)(F)F` [Example 5, (2S)-3-{4-[(10-{[2-Methyl-2′-trifluoromethyl-[1,1′-biphenyl]-4-yl]carbonyl}-10,11-dihydro-5H-pyrrolo[2,1-c][1,4]benzodiazepin-3-yl)carbonyl]piperazin-1-yl}propane-1,2-diol]: 2720 nM; `Cc1cc(C(=O)N2Cc3ccc(C(=O)N4CCN(C[C@@H](O)CO)CC4)n3Cc3ccccc32)ccc1-c1ccccc1C(F)(F)F` [Example 6, (2R)-3-{4-[(10-{[2-Methyl-2′-trifluoromethyl-[1,1′-biphenyl]-4-yl]carbonyl}-10,11-dihydro-5H-pyrrolo[2,1-c][1,4]benzodiazepin-3-yl)carbonyl]piperazin-1-yl}propane-1,2-diol]: 2410 nM.

Take `COC[C@H](O)CN1CCN(C(=O)c2ccc3n2Cc2ccccc2N(C(=O)c2ccc(-c4ccccc4C(F)(F)F)c(C)c2)C3)CC1` [Example 8, (2R)-1-Methoxy-3-{4-[(10-{[2-methyl-2′-trifluoromethyl-[1,1′-biphenyl]-4-yl]carbonyl}-10,11-dihydro-5H-pyrrolo[2,1-c][1,4]benzodiazepin-3-yl)carbonyl]piperazin-1-yl}propan-2-ol]: the IC50 stood at 1970 nM.

For `COC[C@@H](O)CN1CCN(C(=O)c2ccc3n2Cc2ccccc2N(C(=O)c2ccc(-c4ccccc4C(F)(F)F)c(C)c2)C3)CC1` [Example 9, [3-({4-[(2S)-2-Hydroxy-3-methoxypropyl]-1-piperazinyl}carbonyl)-5H-pyrrolo[2,1-c][1,4]benzodiazepin-10(11H)-yl][2-methyl-2′-trifluoromethyl-[1,1′-biphenyl]-4-yl]methanone], the IC50 is 2010 nM.

As to `COCC(CN(C)C(=O)c1ccc2n1Cc1ccccc1N(C(=O)c1ccc(-c3ccccc3C(F)(F)F)c(C)c1)C2)OC` (centres unmarked) [Example 10, N-(2,3-Dimethoxypropyl)-N-methyl-10-{[2-methyl-2′-trifluoromethyl-[1,1′-biphenyl]-4-yl]carbonyl}-10,11-dihydro-5H-pyrrolo[2,1-c][1,4]benzodiazepine-3-carboxamide], the IC50 is 1800 nM. Still for that read-out and setting: next, `Cc1cc(C(=O)N2Cc3ccc(C(=O)N(C)CC4COC(=O)O4)n3Cc3ccccc32)ccc1-c1ccccc1C(F)(F)F` (centres unmarked) [Example 11, 10-[(2-Methyl-2′-trifluoromethyl-[1,1′-biphenyl]-4-yl)carbonyl]-10,11-dihydro-5H-pyrrolo[2,1-c][1,4]benzodiazepine-3-carboxylic acid methyl-[(2-oxo-[1,3]dioxolan-4-yl)methyl]-amide]: 1370 nM. Still for that read-out and setting: in the case of `Cc1cc(C(=O)N2Cc3ccc(C(=O)N(C)C[C@@H]4OC(=O)O[C@H]4[C@H](O)[C@H]4COC(=O)O4)n3Cc3ccccc32)ccc1-c1ccccc1C(F)(F)F` [Example 12, N-[((4S,5S)-5-{(R)-Hydroxy[(4R)-2-oxo-1,3-dioxolan-4-yl]methyl}-2-oxo-1,3-dioxolan-4-yl)methyl]-N-methyl-10-{[2-methyl-2′-(trifluoromethyl)[1,1′-biphenyl]-4-yl]carbonyl}-10,11-dihydro-5H-pyrrolo[2,1-c]benzodiazepine-3-carboxamide] it was 1620 nM; in that of `CC(=O)OCC(CN(C)C(=O)c1ccc2n1Cc1ccccc1N(C(=O)c1ccc(-c3ccccc3C(F)(F)F)c(C)c1)C2)OC(C)=O` (centres unmarked) [Example 13, 2-(Acetyloxy)-1-({methyl[(10-{[2-methyl-2′-trifluoromethyl-[1,1′-biphenyl]-4-yl]carbonyl}-10,11-dihydro-5H-pyrrolo[2,1-c][1,4]benzodiazepin-3-yl)carbonyl]amino}methyl)ethyl acetate], 1200 nM. Same read-out and setting: next, `COc1ccccc1-c1ccc(C(=O)N2Cc3ccc(C(=O)N(C)CC(O)CO)n3Cc3ccccc32)cc1C` (centres unmarked) [Example 14, 10-[(2′-Methoxy-2-methyl-[1,1′-biphenyl]-4-yl)carbonyl]-10,11-dihydro-5H-pyrrolo[2,1-c][1,4]benzodiazepine-3-carboxylic acid (2,3-dihydroxy-propyl)-methyl-amide]: 144 nM.

Usually inhibition stands for the change of the read-out against control, counted positive when it falls. In general, IC50 refers to the point on the concentration scale where inhibition reaches its midpoint.
